Earlier results, collected in PubChem BioAssay AID1259409 (Chemical Carcinogenesis Research Information System (CCRIS), 2018).

Tested on: rodent chemically induced tumor inhibition, incidence and multiplicity
Experiment: CCRIS tumor inhibitor studies
Settings: Route [Inhibitor]: ORAL

## Cc1c(C)c2c(c(C)c1O)CC[C@@](C)(CCC[C@H](C)CCC[C@H](C)CCCC(C)C)O2
Carcinogen: 1,2-DIMETHYLHYDRAZINE, 540-73-8, Dose [Inhibitor]: 600 MG/KG OF DIET DAILY STARTING AT AGE 10 WK AND CONTINUING FOR DURATION OF STUDY (STUDY DURATION: 28 WK), Species: MOUSE, Strain/Sex: LACA/MALE, Target Tissue: Type of Lesion: COLON: ADENOMA, CARCINOMA, Dose [Carcinogen]: 10 MG/KG BW 1/WK FOR 28 WK, Promoter: NONE USED
  tumour outcome (control, treated, inhibition, significance): 34/42 (81%), 31/51 (61%), 25%, p<0.25
Carcinogen: 2-AMINO-1-METHYL-6-PHENYL-1H-IMIDAZO[4,5-B]PYRID INE, 105650-23-5, Dose [Inhibitor]: 0, 1% IN THE DIET FOR 52 WK (STUDY DURATION: 52 WK), Species: RAT, Strain/Sex: F344/FEMALE, Target Tissue: Type of Lesion: MAMMARY GLAND: ADENOCARCINOMA FIBROADENOMA, Dose [Carcinogen]: 0.02% IN THE DIET FOR 52 WK, Promoter: NONE USED
  tumour outcome (control, treated, inhibition, significance): 2/20 (10%), 1/20 (5%), 50%, not significant
Carcinogen: 2-AMINO-1-METHYL-6-PHENYL-1H-IMIDAZO[4,5-B]PYRID INE, 105650-23-5, Dose [Inhibitor]: 0, 1% IN THE DIET FOR 52 WK (STUDY DURATION: 52 WK), Species: RAT, Strain/Sex: F344/FEMALE, Target Tissue: Type of Lesion: MAMMARY GLAND: ADENOCARCINOMA, Dose [Carcinogen]: 0.02% IN THE DIET FOR 52 WK, Promoter: NONE USED
  tumour outcome (control, treated, inhibition, significance): 8/20 (40%), 4/20 (20%), 50%, not significant
Carcinogen: 2-AMINO-1-METHYL-6-PHENYLIMIDAZO[4,5-B]PYRIDINE [105650-23-5], Dose [Inhibitor]: 0.5% IN DIET FOR 54 WK (STUDY DURATION: 54 WK), Species: RAT, Strain/Sex: F344/DUCRJ/FEMALE, Target Tissue: Type of Lesion: COLON: ADENOMA OR ADENOCARCINOMA, Dose [Carcinogen]: 0.02% IN DIET FOR 54 WK (STUDY DURATION: 54 WK), Promoter: NONE
  tumour outcome (control, treated, inhibition, significance): 3/20 (15%), 1/20 (5%), 67%, not significant
Carcinogen: 2-AMINO-1-METHYL-6-PHENYLIMIDAZO[4,5-B]PYRIDINE [105650-23-5], Dose [Inhibitor]: 0.5% IN DIET FOR 54 WK (STUDY DURATION: 54 WK), Species: RAT, Strain/Sex: F344/DUCRJ/FEMALE, Target Tissue: Type of Lesion: MAMMARY GLAND: ADENOMA OR ADENOCARCINOMA, Dose [Carcinogen]: 0.02% IN DIET FOR 54 WK (STUDY DURATION: 54 WK), Promoter: NONE
  tumour outcome (control, treated, inhibition, significance): 8/20 (40%), 4/20 (20%), 50%, not significant
Carcinogen: 3,2'-DIMETHYL-4-AMINOBIPHENYL, 13394-86-0, Dose [Inhibitor]: 0, 1% IN BASAL DIET BEGINNING POST CARCINOGEN TREATMENT AND CONTINUING FOR 40 WK (STUDY DURATION: 60 WK), Species: RAT, Strain/Sex: F344/MALE, Target Tissue: Type of Lesion: LARGE INTESTINE: ADENOMA AND ADENOCARCINOMA, Dose [Carcinogen]: 50 MG/KG 1/2 WK FOR 20 WK TO RATS MAINTAINED ON ETHINYL ESTRADIOL CONTAINING DIET (0.75 PPM) FOR 1 WK CYCLED WITH ETHINY, Promoter: ETHINYL ESTRADIOL, 57-63-6
  tumour outcome (control, treated, inhibition, significance): 3/10 (30%), 4/12 (33%), -10%, not significant
Carcinogen: 3,2'-DIMETHYL-4-AMINOBIPHENYL, 13394-86-0, Dose [Inhibitor]: 0, 1% IN BASAL DIET BEGINNING POST CARCINOGEN TREATMENT AND CONTINUING FOR 40 WK (STUDY DURATION: 60 WK), Species: RAT, Strain/Sex: F344/MALE, Target Tissue: Type of Lesion: PREPUTIAL GLAND: ADENOMA AND CARCINOMA, Dose [Carcinogen]: 50 MG/KG 1/2 WK FOR 20 WK TO RATS MAINTAINED ON ETHINYL ESTRADIOL CONTAINING DIET (0.75 PPM) FOR 1 WK CYCLED WITH ETHINY, Promoter: ETHINYL ESTRADIOL, 57-63-6
  tumour outcome (control, treated, inhibition, significance): 5/10 (50%), 6/12 (50%), 0%, not significant
Carcinogen: 3,2'-DIMETHYL-4-AMINOBIPHENYL, 13394-86-0, Dose [Inhibitor]: 0, 1% IN BASAL DIET BEGINNING POST CARCINOGEN TREATMENT AND CONTINUING FOR 40 WK (STUDY DURATION: 60 WK), Species: RAT, Strain/Sex: F344/MALE, Target Tissue: Type of Lesion: SMALL INTESTINE: ADENOMA AND ADENOCARCINOMA, Dose [Carcinogen]: 50 MG/KG 1/2 WK FOR 20 WK TO RATS MAINTAINED ON ETHINYL ESTRADIOL CONTAINING DIET (0.75 PPM) FOR 1 WK CYCLED WITH ETHINY, Promoter: ETHINYL ESTRADIOL, 57-63-6
  tumour outcome (control, treated, inhibition, significance): 2/10 (20%), 1/12 (8%), 60%, not significant
Carcinogen: 3,2'-DIMETHYL-4-AMINOBIPHENYL, 13394-86-0, Dose [Inhibitor]: 0, 1% IN BASAL DIET BEGINNING POST CARCINOGEN TREATMENT AND CONTINUING FOR 40 WK (STUDY DURATION: 60 WK), Species: RAT, Strain/Sex: F344/MALE, Target Tissue: Type of Lesion: SUBCUTIS: TUMOR, Dose [Carcinogen]: 50 MG/KG 1/2 WK FOR 20 WK TO RATS MAINTAINED ON ETHINYL ESTRADIOL CONTAINING DIET (0.75 PPM) FOR 1 WK CYCLED WITH ETHINY, Promoter: ETHINYL ESTRADIOL, 57-63-6
  tumour outcome (control, treated, inhibition, significance): 1/10 (10%), 0/12 (0%), 100%, not significant
Carcinogen: 3,2'-DIMETHYL-4-AMINOBIPHENYL, 13394-86-0, Dose [Inhibitor]: 0, 1% IN BASAL DIET BEGINNING POST CARCINOGEN TREATMENT AND CONTINUING FOR 40 WK (STUDY DURATION: 60 WK), Species: RAT, Strain/Sex: F344/MALE, Target Tissue: Type of Lesion: ZYMBAL GLAND: ADENOMA AND CARCINOMA, Dose [Carcinogen]: 50 MG/KG 1/2 WK FOR 20 WK TO RATS MAINTAINED ON ETHINYL ESTRADIOL CONTAINING DIET (0.75 PPM) FOR 1 WK CYCLED WITH ETHINY, Promoter: ETHINYL ESTRADIOL, 57-63-6
  tumour outcome (control, treated, inhibition, significance): 2/10 (20%), 1/12 (8%), 60%, not significant
